From patent publication US9079901B2, “Fused heterocyclic compounds as ion channel modulators” (Gilead Sciences, Inc., priority 2010, dated 2015)

Molecular target: wild-type human cardiac sodium channel, hNav1.5 (late sodium current) in HEK293 cells (Homo sapiens, UniProt Q14524)
Experiment: Late INa screening assay (automated whole-cell patch clamp, PatchXpress)
Type: cell-based
Conditions: late INa generated with 10 μM Tefluthrin (or 50 nM ATX II), HEK293 hNav1.5; for inhibition at 1 µM: HEK293, compound at 1 μM, read-out: Late INa 1 μM (percent block of late INa)
In short: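 Percent block was derived from mean current 225–250 ms into a 250 ms depolarisation to −20 mV (holding −120 mV, every 10 s), normalised to the current left in Na-free solution. Whole-cell recordings came from HEK293 cells stably expressing α-subunit-only hNav1.5, at 24–27 °C. Late current was enhanced with 10 μM tefluthrin or 50 nM ATX II, then compound (typically 10 μM) was added three times over 7–8 min.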

Sequence of wild-type human cardiac sodium channel, hNav1.5 (late sodium current) in HEK293 cells (Q14524 whole entry): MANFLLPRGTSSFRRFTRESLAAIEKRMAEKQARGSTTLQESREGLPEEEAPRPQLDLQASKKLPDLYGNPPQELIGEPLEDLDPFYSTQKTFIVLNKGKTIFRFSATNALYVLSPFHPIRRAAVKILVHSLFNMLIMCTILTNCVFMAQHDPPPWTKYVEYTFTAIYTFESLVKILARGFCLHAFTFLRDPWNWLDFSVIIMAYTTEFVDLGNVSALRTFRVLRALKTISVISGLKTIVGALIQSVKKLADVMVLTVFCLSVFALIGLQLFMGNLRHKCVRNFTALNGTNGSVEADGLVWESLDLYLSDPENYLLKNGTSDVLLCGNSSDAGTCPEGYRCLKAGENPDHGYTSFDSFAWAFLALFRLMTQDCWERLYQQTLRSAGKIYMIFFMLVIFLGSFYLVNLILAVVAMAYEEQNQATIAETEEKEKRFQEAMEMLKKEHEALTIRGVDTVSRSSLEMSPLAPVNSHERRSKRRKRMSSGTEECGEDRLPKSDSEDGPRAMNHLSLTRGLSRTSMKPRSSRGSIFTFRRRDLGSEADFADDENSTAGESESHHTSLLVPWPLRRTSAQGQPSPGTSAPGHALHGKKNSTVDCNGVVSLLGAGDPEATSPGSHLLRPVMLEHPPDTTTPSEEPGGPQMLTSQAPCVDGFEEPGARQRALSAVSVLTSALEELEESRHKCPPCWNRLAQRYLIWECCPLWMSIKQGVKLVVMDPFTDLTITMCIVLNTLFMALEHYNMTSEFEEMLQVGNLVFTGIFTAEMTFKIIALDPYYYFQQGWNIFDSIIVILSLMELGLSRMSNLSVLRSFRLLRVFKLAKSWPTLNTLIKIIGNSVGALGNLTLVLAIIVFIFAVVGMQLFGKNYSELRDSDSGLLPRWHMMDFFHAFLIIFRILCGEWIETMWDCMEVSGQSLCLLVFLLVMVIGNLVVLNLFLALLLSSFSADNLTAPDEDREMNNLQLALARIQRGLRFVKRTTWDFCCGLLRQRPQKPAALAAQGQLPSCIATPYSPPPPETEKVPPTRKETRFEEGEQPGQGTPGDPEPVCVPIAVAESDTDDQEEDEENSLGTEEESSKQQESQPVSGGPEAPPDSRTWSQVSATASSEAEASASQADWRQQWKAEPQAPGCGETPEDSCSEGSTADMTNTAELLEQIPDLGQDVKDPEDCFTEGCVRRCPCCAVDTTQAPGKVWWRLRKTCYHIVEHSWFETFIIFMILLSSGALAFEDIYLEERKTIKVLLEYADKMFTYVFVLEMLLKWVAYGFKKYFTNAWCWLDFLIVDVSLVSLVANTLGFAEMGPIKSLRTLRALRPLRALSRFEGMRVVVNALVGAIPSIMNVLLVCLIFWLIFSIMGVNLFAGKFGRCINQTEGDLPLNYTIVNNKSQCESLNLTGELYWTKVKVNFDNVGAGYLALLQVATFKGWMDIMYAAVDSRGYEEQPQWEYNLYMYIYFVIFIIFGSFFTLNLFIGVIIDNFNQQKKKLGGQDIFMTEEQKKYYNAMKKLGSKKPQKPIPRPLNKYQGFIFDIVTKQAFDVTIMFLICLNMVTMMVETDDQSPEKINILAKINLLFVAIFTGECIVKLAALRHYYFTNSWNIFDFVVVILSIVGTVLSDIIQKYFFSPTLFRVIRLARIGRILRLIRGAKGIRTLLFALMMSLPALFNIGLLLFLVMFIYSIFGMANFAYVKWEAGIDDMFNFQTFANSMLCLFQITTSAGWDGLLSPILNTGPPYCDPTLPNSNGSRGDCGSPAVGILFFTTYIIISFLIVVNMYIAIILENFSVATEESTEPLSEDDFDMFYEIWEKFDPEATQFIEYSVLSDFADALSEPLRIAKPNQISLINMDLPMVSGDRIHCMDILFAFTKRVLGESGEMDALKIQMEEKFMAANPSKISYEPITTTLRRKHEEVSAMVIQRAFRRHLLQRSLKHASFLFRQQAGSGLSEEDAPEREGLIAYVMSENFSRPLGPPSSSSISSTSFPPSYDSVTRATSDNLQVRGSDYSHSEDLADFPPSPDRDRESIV

SMILES | inhibition at 1 µM | Late INa 1 μM (percent block of late INa) (compound at 1 μM)
O=c1n(CCN2CC[C@@H](Oc3ccc(F)cc3)C2)nc2ccc(-c3ccc(OC(F)(F)F)cc3)cn12 [compound 186, (R)-2-(2-(3-(4-fluorophenoxy)pyrrolidin-1-yl)ethyl)-6-(4-(trifluoromethoxy)phenyl)-[1,2,4]triazolo[4,3-a]pyridin-3(2H)-one] | 37.3% | 
O=c1n(CCOc2ncccn2)nc2ccc(-c3ccc(Oc4ccc(Cl)cc4)cc3)cn12 [compound 120, 6-(4-(4-chlorophenoxy)phenyl)-2-(2-(pyrimidin-2-yloxy)ethyl)-[1,2,4]triazolo[4,3-a]pyridin-3(2H)-one] | 73.9% | 
Cc1noc(Cn2nc3ccc(-c4ccc(OC(F)(F)F)cc4C)cn3c2=O)n1 [compound 87, 2-((3-methyl-1,2,4-oxadiazol-5-yl)methyl)-6-(2-methyl-4-(trifluoromethoxy)phenyl)-[1,2,4]triazolo[4,3-a]pyridin-3(2H)-one] | 21.3% | 
O=c1n(CCOc2ncccn2)nc2ccc(-c3ccc(Oc4ccc(F)cc4)cc3)cn12 [compound 122, 6-(4-(4-fluorophenoxy)phenyl)-2-(2-(pyrimidin-2-yloxy)ethyl)-[1,2,4]triazolo[4,3-a]pyridin-3(2H)-one] | 58.5% | 
O=c1n(CCOc2ncc(F)cn2)nc2ccc(-c3ccc(OC(F)(F)F)cc3)cn12 [compound 138, 2-(2-(5-fluoropyrimidin-2-yloxy)ethyl)-6-(4-(trifluoromethoxy)phenyl)-[1,2,4]triazolo[4,3-a]pyridin-3(2H)-one] | 32.4% | 
O=c1n(CCOc2ccc(Cl)cc2)nc2ccc(-c3ccc(OC(F)(F)F)cc3)cn12 [compound 40, 2-(2-(4-chlorophenoxy)ethyl)-6-(4-(trifluoromethoxy)phenyl)-[1,2,4]triazolo[4,3-a]pyridin-3(2H)-one] | 34.3% | 
Cc1nc(Cn2nc3ccc(-c4ccc(Oc5ccc(F)cc5)cc4)cn3c2=O)no1 [compound 140, 6-(4-(4-fluorophenoxy)phenyl)-2-((5-methyl-1,2,4-oxadiazol-3-yl)methyl)-[1,2,4]triazolo[4,3-a]pyridin-3(2H)-one] | 60.6% | 
Cc1noc(Cn2nc3ccc(-c4ccc(C(F)(F)F)cc4)cn3c2=O)n1 [compound 137, 2-((3-methyl-1,2,4-oxadiazol-5-yl)methyl)-6-(4-(trifluoromethyl)phenyl)-[1,2,4]triazolo[4,3-a]pyridin-3(2H)-one] | 28.8% | 
N#CCOc1ccnc(OCCn2nc3ccc(-c4ccc(OC(F)(F)F)cc4)cn3c2=O)n1 [compound 160] |  | 24.6907%
O=c1n(CCc2ccc(-c3cccnc3)cn2)nc2ccc(-c3ccc(OC(F)(F)F)cc3)cn12 [compound 74, 2-(2-(3,3′-bipyridin-6-yl)ethyl)-6-(4-(trifluoromethoxy)phenyl)-[1,2,4]triazolo[4,3-a]pyridin-3(2H)-one] | 11.1% | 
O=c1n(CCc2ccccn2)nc2ccc(-c3ccc(OC(F)(F)F)cc3)cn12 [compound 36, 2-(2-(pyridin-2-yl)ethyl)-6-(4-(trifluoromethoxy)phenyl)-[1,2,4]triazolo[4,3-a]pyridin-3(2H)-one] | 48.4% | 
Cc1cc(Cn2nc3ccc(-c4ccc(OC(F)(F)F)cc4)cn3c2=O)no1 [compound 5, 2-((5-methylisoxazol-3-yl)methyl)-6-(4-(trifluoromethoxy)phenyl)-[1,2,4]triazolo[4,3-a]pyridin-3(2H)-one] | 28.3% | 
[2H]C([2H])([2H])c1noc(Cn2nc3ccc(-c4ccc(OC(F)(F)F)cc4)cn3c2=O)n1 [compound 169, 2-((3-trideuteromethyl-1,2,4-oxadiazol-5-yl)methyl)-6-(4-(trifluoromethoxy)phenyl)-[1,2,4]triazolo[4,3-a]pyridin-3(2H)-one] | 24.1% | 
O=c1n(CC(COc2ccccc2Cl)Oc2ncccn2)nc2ccc(-c3ccc(OC(F)(F)F)cc3)cn12 (centres unmarked) [compound 89, 2-(3-(2-chlorophenoxy)-2-(pyrimidin-2-yloxy)propyl)-6-(4-(trifluoromethoxy)phenyl)-[1,2,4]triazolo[4,3-a]pyridin-3(2H)-one] | 16% | 
O=c1n(CCc2cnccn2)nc2ccc(-c3ccc(OC(F)(F)F)cc3)cn12 [compound 114, 2-(2-(pyrazin-2-yl)ethyl)-6-(4-(trifluoromethoxy)phenyl)-[1,2,4]triazolo[4,3-a]pyridin-3(2H)-one] | 14.4% | 
O=c1n(CCc2ncccn2)nc2ccc(-c3ccc(OC(F)(F)F)cc3)cn12 [compound 111, 2-(2-(pyrimidin-2-yl)ethyl)-6-(4-(trifluoromethoxy)phenyl)-[1,2,4]triazolo[4,3-a]pyridin-3(2H)-one] | 18.6% | 

SMILES | inhibition at 1 µM | Late INa 1 μM (percent block of late INa) (compound at 1 μM)
Cc1cc(C)nc(OCCn2nc3ccc(-c4ccc(OC(F)(F)F)cc4)cn3c2=O)n1 [compound 88, 2-(2-(4,6-dimethylpyrimidin-2-yloxy)ethyl)-6-(4-(trifluoromethoxy)phenyl)-[1,2,4]triazolo[4,3-a]pyridin-3(2H)-one] | 20.8% | 
CN(C)c1nc(OCCn2nc3ccc(-c4ccc(OC(F)(F)F)cc4)cn3c2=O)ncc1F [compound 126, 2-(2-(4-(dimethylamino)-5-fluoropyrimidin-2-yloxy)ethyl)-6-(4-(trifluoromethoxy)phenyl)-[1,2,4]triazolo[4,3-a]pyridin-3(2H)-one] | 32.6% | 
O=c1n(Cc2cccc(C(F)(F)F)n2)nc2ccc(-c3ccc(OC(F)(F)F)cc3)cn12 [compound 62, 6-(4-(trifluoromethoxy)phenyl)-2-((6-(trifluoromethyl)pyridin-2-yl)methyl)-[1,2,4]triazolo[4,3-a]pyridin-3(2H)-one] | 21.6% | 
Cc1nc(Cn2nc3ccc(-c4ccc(C(F)(F)F)cc4)cn3c2=O)oc1C [compound 173, 2-((4,5-dimethyloxazol-2-yl)methyl)-6-(4-(trifluoromethyl)phenyl)-[1,2,4]triazolo[4,3-a]pyridin-3(2H)-one] | 22.2% | 
Cc1noc(Cn2nc3ccc(-c4ccc(Oc5ccc(Cl)cc5)cc4)cn3c2=O)n1 [compound 53, 6-(4-(4-chlorophenoxy)phenyl)-2-((3-methyl-1,2,4-oxadiazol-5-yl)methyl)-[1,2,4]triazolo[4,3-a]pyridin-3(2H)-one] | 55.9% | 
CCOc1ccnc(OCCn2nc3ccc(-c4ccc(OC(F)(F)F)cc4)cn3c2=O)n1 [compound 106, 2-(2-(4-ethoxypyrimidin-2-yloxy)ethyl)-6-(4-(trifluoromethoxy)phenyl)-[1,2,4]triazolo[4,3-a]pyridin-3(2H)-one] | 47.2% | 
COc1ccccc1OCC(Cn1nc2ccc(-c3ccc(OC(F)(F)F)cc3)cn2c1=O)OC (centres unmarked) [compound 23, 2-(2-methoxy-3-(2-methoxyphenoxy)propyl)-6-(4-(trifluoromethoxy)phenyl)-[1,2,4]triazolo[4,3-a]pyridin-3(2H)-one] | 55.1% | 
O=c1n(Cc2noc(C3CC3)n2)nc2ccc(-c3ccc(OC(F)(F)F)cc3)cn12 [compound 142, 2-((5-cyclopropyl-1,2,4-oxadiazol-3-yl)methyl)-6-(4-(trifluoromethoxy)phenyl)-[1,2,4]triazolo[4,3-a]pyridin-3(2H)-one] | 20% | 
CCc1noc(C(C)n2nc3ccc(-c4ccc(OC(F)(F)F)cc4)cn3c2=O)n1 (centres unmarked) [compound 14, 2-(1-(3-ethyl-1,2,4-oxadiazol-5-yl)ethyl)-6-(4-(trifluoromethoxy)phenyl)-[1,2,4]triazolo[4,3-a]pyridin-3(2H)-one] | 12% | 
O=c1n(CCOc2ccccn2)nc2ccc(-c3ccc(OC(F)(F)F)cc3)cn12 [compound 49, 2-(2-(pyridin-2-yloxy)ethyl)-6-(4-(trifluoromethoxy)phenyl)-[1,2,4]triazolo[4,3-a]pyridin-3(2H)-one] | 29.9% | 
COCc1noc(Cn2nc3ccc(-c4ccc(C(F)(F)F)cc4)cn3c2=O)n1 [compound 168, 2-((3-(methoxymethyl)-1,2,4-oxadiazol-5-yl)methyl)-6-(4-(trifluoromethyl)phenyl)-[1,2,4]triazolo[4,3-a]pyridin-3(2H)-one] | 19.1% | 
O=c1n(CCCc2ccc(F)cc2)nc2ccc(-c3ccc(OC(F)(F)F)cc3)cn12 [compound 76, 2-(3-(4-fluorophenyl)propyl)-6-(4-(trifluoromethoxy)phenyl)-[1,2,4]triazolo[4,3-a]pyridin-3(2H)-one] | 19% | 
COC(COc1ccccc1Cl)Cn1nc2ccc(-c3ccc(OC(F)(F)F)cc3)cn2c1=O (centres unmarked) [compound 80, 2-(3-(2-chlorophenoxy)-2-methoxypropyl)-6-(4-(trifluoromethoxy)phenyl)-[1,2,4]triazolo[4,3-a]pyridin-3(2H)-one] | 33.4% | 
O=c1n(CCc2ncccc2C2CC2)nc2ccc(-c3ccc(OC(F)(F)F)cc3)cn12 [compound 60, 2-(2-(3-cyclopropylpyridin-2-yl)ethyl)-6-(4-(trifluoromethoxy)phenyl)-[1,2,4]triazolo[4,3-a]pyridin-3(2H)-one] | 34.1% | 
Cc1nc(Cn2nc3ccc(-c4ccc(Oc5ccc(Cl)cc5)cc4)cn3c2=O)no1 [compound 32, 6-(4-(4-chlorophenoxy)phenyl)-2-((5-methyl-1,2,4-oxadiazol-3-yl)methyl)-[1,2,4]triazolo[4,3-a]pyridin-3(2H)-one] | 68.5% | 
O=c1n(CCN2CCC(Oc3ccccc3)C2)nc2ccc(-c3ccc(OC(F)(F)F)cc3)cn12 (centres unmarked) [compound 39, 2-(2-(3-phenoxypyrrolidin-1-yl)ethyl)-6-(4-(trifluoromethoxy)phenyl)-[1,2,4]triazolo[4,3-a]pyridin-3(2H)-one] | 45.4% | 
